Laboratory results reported in patent US20240158370A1, “CK1 alpha AND DUAL CK1 alpha / GSPT1 DEGRADING COMPOUNDS” (Innovo Therapeutics, Inc., priority 2022, published 2024).

What was measured:
CK1α = molecular target: T1, CK1α (Homo sapiens, UniProt P48729+Q96SW2); assay: HiBiT degradation assay, CK1α, Procedure A; format: cell-based; conditions: six hours incubation
T1 construct: CSNK1A1-HiBit KI HEK293(LgBit) Cells; host or cells: HEK293(LgBit) knock-in cells
Summary of the method: (§1)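 10-pt dose response, 10–0.005 μM, 0.1% DMSO; cells 1×10^6/ml in DMEM/10% FBS, 6 h, 37° C; HiBiT lytic detection, luminescence; DC50 + Ymin by 4-parameter fit.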

GSPT1 = GSPT1 (Homo sapiens, UniProt P15170+Q96SW2); assay: HiBiT degradation assay, GSPT1, Procedure A; format: cell-based; parameters: HiBit-GSPT1 KI HEK293(LgBit) Cells; host or cells: HEK293(LgBit) knock-in cells; conditions: six hours incubation
Summary of the method: as §1

GSPT1, sequence (P15170 whole entry): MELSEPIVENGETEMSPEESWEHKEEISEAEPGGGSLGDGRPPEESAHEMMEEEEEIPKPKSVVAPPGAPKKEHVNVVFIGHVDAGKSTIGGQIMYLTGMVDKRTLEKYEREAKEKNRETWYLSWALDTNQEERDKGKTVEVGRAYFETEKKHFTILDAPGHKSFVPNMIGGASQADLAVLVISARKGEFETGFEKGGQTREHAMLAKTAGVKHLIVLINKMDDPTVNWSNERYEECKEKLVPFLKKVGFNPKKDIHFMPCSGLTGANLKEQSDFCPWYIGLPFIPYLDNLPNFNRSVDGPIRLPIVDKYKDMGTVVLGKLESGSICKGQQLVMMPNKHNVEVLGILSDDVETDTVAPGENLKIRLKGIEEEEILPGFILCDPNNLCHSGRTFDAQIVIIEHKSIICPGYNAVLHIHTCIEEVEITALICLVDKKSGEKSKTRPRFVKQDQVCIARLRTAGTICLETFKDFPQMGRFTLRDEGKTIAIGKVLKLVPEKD
GSPT1, sequence (Q96SW2 whole entry): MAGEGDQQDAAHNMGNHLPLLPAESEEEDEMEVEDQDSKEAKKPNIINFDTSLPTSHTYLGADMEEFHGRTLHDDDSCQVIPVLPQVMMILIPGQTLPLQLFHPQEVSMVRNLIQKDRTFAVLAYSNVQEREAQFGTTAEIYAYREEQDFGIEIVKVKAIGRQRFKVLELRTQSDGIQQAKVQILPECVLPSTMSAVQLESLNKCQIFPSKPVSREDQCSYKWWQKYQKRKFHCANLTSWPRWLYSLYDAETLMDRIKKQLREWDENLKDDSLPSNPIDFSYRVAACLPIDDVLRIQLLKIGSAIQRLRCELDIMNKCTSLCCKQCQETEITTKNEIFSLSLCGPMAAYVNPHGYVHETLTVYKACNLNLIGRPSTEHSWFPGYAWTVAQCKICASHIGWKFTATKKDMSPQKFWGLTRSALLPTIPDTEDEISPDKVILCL
GSPT1, sequence (Q16531 whole entry partner): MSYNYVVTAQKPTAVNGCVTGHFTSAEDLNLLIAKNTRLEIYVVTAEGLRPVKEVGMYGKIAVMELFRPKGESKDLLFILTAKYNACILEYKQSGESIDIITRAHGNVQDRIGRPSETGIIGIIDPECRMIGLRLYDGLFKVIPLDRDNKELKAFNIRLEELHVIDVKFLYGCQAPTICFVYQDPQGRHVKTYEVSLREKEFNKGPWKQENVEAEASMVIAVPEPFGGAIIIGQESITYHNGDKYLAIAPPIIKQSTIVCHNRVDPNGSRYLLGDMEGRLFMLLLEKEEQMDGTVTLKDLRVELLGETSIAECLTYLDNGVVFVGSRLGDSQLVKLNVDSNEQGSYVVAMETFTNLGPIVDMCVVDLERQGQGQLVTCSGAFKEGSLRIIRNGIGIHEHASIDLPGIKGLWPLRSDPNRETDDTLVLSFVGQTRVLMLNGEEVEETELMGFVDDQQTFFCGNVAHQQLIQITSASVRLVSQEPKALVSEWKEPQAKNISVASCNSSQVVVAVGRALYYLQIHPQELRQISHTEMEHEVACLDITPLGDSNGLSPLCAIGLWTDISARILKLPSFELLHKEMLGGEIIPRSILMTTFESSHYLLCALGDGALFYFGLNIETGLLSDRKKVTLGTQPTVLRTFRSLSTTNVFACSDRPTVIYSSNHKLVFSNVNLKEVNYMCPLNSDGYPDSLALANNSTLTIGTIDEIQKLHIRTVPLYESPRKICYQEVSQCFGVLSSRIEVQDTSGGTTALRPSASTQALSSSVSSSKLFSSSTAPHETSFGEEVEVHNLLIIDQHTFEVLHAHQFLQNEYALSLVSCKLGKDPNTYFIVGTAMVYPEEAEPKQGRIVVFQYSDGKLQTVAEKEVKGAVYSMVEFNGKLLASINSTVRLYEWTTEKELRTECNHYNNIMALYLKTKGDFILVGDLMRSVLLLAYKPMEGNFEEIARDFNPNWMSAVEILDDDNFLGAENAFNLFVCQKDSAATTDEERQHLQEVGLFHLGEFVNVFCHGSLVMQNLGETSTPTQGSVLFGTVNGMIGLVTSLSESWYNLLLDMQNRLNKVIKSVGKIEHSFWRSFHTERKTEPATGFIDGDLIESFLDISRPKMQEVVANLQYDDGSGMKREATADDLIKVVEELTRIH
T1 sequence (P48729 whole entry): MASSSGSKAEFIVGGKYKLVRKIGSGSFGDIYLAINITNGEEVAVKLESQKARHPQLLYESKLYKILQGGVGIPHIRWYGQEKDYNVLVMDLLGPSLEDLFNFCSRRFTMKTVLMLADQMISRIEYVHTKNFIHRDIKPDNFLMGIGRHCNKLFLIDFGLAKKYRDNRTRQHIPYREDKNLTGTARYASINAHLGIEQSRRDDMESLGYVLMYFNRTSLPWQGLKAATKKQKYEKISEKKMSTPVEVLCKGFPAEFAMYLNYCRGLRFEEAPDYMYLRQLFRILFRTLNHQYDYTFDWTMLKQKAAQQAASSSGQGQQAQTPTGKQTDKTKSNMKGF
T1 sequence (Q96SW2 whole entry): as the sequence (Q96SW2 whole entry) above
T1 sequence (Q16531 whole entry partner): as the sequence (Q16531 whole entry partner) above

SMILES | CK1α Ymin (CK1α) | DC50 (CK1α) [nM] | DC50 (GSPT1) [nM] | GSPT1 Ymin (GSPT1)
Cn1cnc(-c2ccc3c(c2)CN(C2CCC(=O)NC2=O)C3=O)c1-c1ccc2[nH]ccc2c1 (stereo not drawn) [Example 346] | D (D = >10- 25% remaining) | < 25 | ≥ 25 | F (F = >75-100% remaining)
Cn1cnc(-c2ccc3c(c2)CN(C2CCC(=O)NC2=O)C3=O)c1-c1ccsc1Cl (stereo not drawn) [Example 348] | E (E = >25-75% remaining) | < 25 | ≥ 25 | F (F = >75-100% remaining)
Cn1cnc(-c2ccc3c(c2)CN(C2CCC(=O)NC2=O)C3=O)c1-c1cccc2c1OCC2 (stereo not drawn) [Example 349] | C (C = 0-10% remaining) | < 25 | < 25 | F (F = >75-100% remaining)
COc1cc(-c2c(-c3ccc4c(c3)CN(C3CCC(=O)NC3=O)C4=O)ncn2C)ccc1Cl (stereo not drawn) [Example 351] | D (D = >10- 25% remaining) | ≥ 25 | ≥ 25 | F (F = >75-100% remaining)
Cn1cnc(-c2ccc3c(c2)CN(C2CCC(=O)NC2=O)C3=O)c1-c1ccc(N2CCOCC2)cc1 (stereo not drawn) [Example 353] | C (C = 0-10% remaining) | < 25 | < 25 | F (F = >75-100% remaining)
Cn1cnc(-c2ccc3c(c2)CN(C2CCC(=O)NC2=O)C3=O)c1-c1ccc(S(=O)(=O)N2CCCC2)cc1 (stereo not drawn) [Example 354] | E (E = >25-75% remaining) | < 25 | < 25 | F (F = >75-100% remaining)
CN1CCN(c2ccc(-c3c(-c4ccc5c(c4)CN(C4CCC(=O)NC4=O)C5=O)ncn3C)cc2)CC1 (stereo not drawn) [Example 355] | E (E = >25-75% remaining) | < 25 | ≥ 25 | F (F = >75-100% remaining)
CN1CCN(C(=O)c2cccc(-c3c(-c4ccc5c(c4)CN(C4CCC(=O)NC4=O)C5=O)ncn3C)c2)CC1 (stereo not drawn) [Example 357] | C (C = 0-10% remaining) | < 25 | ≥ 25 | F (F = >75-100% remaining)
COc1ccc(-c2c(-c3ccc4c(c3)CN(C3CCC(=O)NC3=O)C4=O)ncn2C)cc1OCc1ccccc1 (stereo not drawn) [Example 358] | E (E = >25-75% remaining) | < 25 | ≥ 25 | F (F = >75-100% remaining)
Cn1ncc(-c2ccc3c(c2)CN(C2CCC(=O)NC2=O)C3=O)c1-c1cccnc1 (stereo not drawn) [Example 360] | D (D = >10- 25% remaining) | < 25 | ≥ 25 | F (F = >75-100% remaining)
Cn1ccc(-c2c(-c3ccc4c(c3)CN(C3CCC(=O)NC3=O)C4=O)cnn2C)c1 (stereo not drawn) [Example 363] | C (C = 0-10% remaining) | < 25 | < 25 | F (F = >75-100% remaining)
Cc1occc1-c1c(-c2ccc3c(c2)CN(C2CCC(=O)NC2=O)C3=O)cnn1C (stereo not drawn) [Example 364] | D (D = >10- 25% remaining) | ≥ 25 | ≥ 25 | F (F = >75-100% remaining)
Cn1cc(-c2c(-c3ccc4c(c3)CN(C3CCC(=O)NC3=O)C4=O)cnn2C)cn1 (stereo not drawn) [Example 366] | C (C = 0-10% remaining) | < 25 | ≥ 25 | F (F = >75-100% remaining)
Cc1cc(-c2c(-c3ccc4c(c3)CN(C3CCC(=O)NC3=O)C4=O)cnn2C)ccn1 (stereo not drawn) [Example 368] | E (E = >25-75% remaining) | < 25 | < 25 | F (F = >75-100% remaining)
Cn1ncc(-c2ccc3c(c2)CN(C2CCC(=O)NC2=O)C3=O)c1-c1ccc(N)nc1 (stereo not drawn) [Example 370] | E (E = >25-75% remaining) | ≥ 25 | ≥ 25 | 
Cn1ncc(-c2ccc3c(c2)CN(C2CCC(=O)NC2=O)C3=O)c1-c1cncc(N)c1 (stereo not drawn) [Example 371] | D (D = >10- 25% remaining) | ≥ 25 | ≥ 25 | F (F = >75-100% remaining)
Cc1c(-c2c(-c3ccc4c(c3)CN(C3CCC(=O)NC3=O)C4=O)cnn2C)cnn1C (stereo not drawn) [Example 372] | E (E = >25-75% remaining) | ≥ 25 | ≥ 25 | F (F = >75-100% remaining)
Cc1nn(C)cc1-c1c(-c2ccc3c(c2)CN(C2CCC(=O)NC2=O)C3=O)cnn1C (stereo not drawn) [Example 373] | E (E = >25-75% remaining) | ≥ 25 | ≥ 25 | F (F = >75-100% remaining)
CN1N=CC(c2ccc3c(c2)CN(C2CCC(=O)NC2=O)C3=O)C1c1cnc(C#N)nc1 (stereo not drawn) [Example 374] | F (F = >75-100% remaining) | ≥ 25 | ≥ 25 | F (F = >75-100% remaining)

Second part, the compound after the results:

CK1α Ymin (CK1α) | DC50 (CK1α) [nM] | DC50 (GSPT1) [nM] | GSPT1 Ymin (GSPT1) | SMILES
E (E = >25-75% remaining) | < 25 | ≥ 25 | F (F = >75-100% remaining) | COc1ccc(-c2nn(C(F)F)cc2-c2ccc3c(c2)CN(C2CCC(=O)NC2=O)C3=O)cc1F (stereo not drawn) [Example 341, 3-(5-(1-(difluoromethyl)-3-(3-fluoro-4-methoxyphenyl)-1H-pyrazol-4-yl)-1-oxoisoindolin-2-yl)piperidine-2,6-dione]
F (F = >75-100% remaining) | ≥ 25 | ≥ 25 | F (F = >75-100% remaining) | Cn1cnc(-c2ccc3c(c2)CN(C2CCC(=O)NC2=O)C3=O)c1-c1ccc(C#N)s1 (stereo not drawn) [Example 342]
C (C = 0-10% remaining) | < 25 | ≥ 25 | F (F = >75-100% remaining) | Cn1cnc(-c2ccc3c(c2)CN(C2CCC(=O)NC2=O)C3=O)c1-c1cccc(N)c1 (stereo not drawn) [Example 343]
E (E = >25-75% remaining) | < 25 | ≥ 25 | F (F = >75-100% remaining) | Cc1ccsc1-c1c(-c2ccc3c(c2)CN(C2CCC(=O)NC2=O)C3=O)ncn1C (stereo not drawn) [Example 344]
E (E = >25-75% remaining) | < 25 | ≥ 25 | F (F = >75-100% remaining) | COc1cccc(-c2c(-c3ccc4c(c3)CN(C3CCC(=O)NC3=O)C4=O)ncn2C)c1 (stereo not drawn) [Example 345]
E (E = >25-75% remaining) | < 25 | ≥ 25 | F (F = >75-100% remaining) | Cn1cnc(-c2ccc3c(c2)CN(C2CCC(=O)NC2=O)C3=O)c1-c1ccccc1C1CC1 (stereo not drawn) [Example 347]
D (D = >10- 25% remaining) | ≥ 25 | ≥ 25 | F (F = >75-100% remaining) | Cn1cnc(-c2ccc3c(c2)CN(C2CCC(=O)NC2=O)C3=O)c1-c1cc(F)ccc1Cl (stereo not drawn) [Example 350]
C (C = 0-10% remaining) | < 25 | ≥ 25 | F (F = >75-100% remaining) | Cn1cnc(-c2ccc3c(c2)CN(C2CCC(=O)NC2=O)C3=O)c1-c1cccc(-c2cccnc2)c1 (stereo not drawn) [Example 352]
F (F = >75-100% remaining) | ≥ 25 | ≥ 25 | F (F = >75-100% remaining) | Cn1cnc(-c2ccc3c(c2)CN(C2CCC(=O)NC2=O)C3=O)c1-c1ccc(NC(=O)c2ccccc2)cc1 (stereo not drawn) [Example 356]
E (E = >25-75% remaining) | < 25 | ≥ 25 | F (F = >75-100% remaining) | Cn1cnc(-c2ccc3c(c2)CN(C2CCC(=O)NC2=O)C3=O)c1-c1ccc(OCCCN2CCOCC2)cc1 (stereo not drawn) [Example 359]
E (E = >25-75% remaining) | < 25 | ≥ 25 | F (F = >75-100% remaining) | Cn1ncc(-c2ccc3c(c2)CN(C2CCC(=O)NC2=O)C3=O)c1-c1ccncc1 (stereo not drawn) [Example 361]
E (E = >25-75% remaining) | < 25 | ≥ 25 | F (F = >75-100% remaining) | Cn1ncc(-c2ccc3c(c2)CN(C2CCC(=O)NC2=O)C3=O)c1-c1cncnc1 (stereo not drawn) [Example 362]
D (D = >10- 25% remaining) | ≥ 25 | ≥ 25 | F (F = >75-100% remaining) | Cc1ccc(-c2c(-c3ccc4c(c3)CN(C3CCC(=O)NC3=O)C4=O)cnn2C)o1 (stereo not drawn) [Example 365]
C (C = 0-10% remaining) | < 25 | < 25 | F (F = >75-100% remaining) | Cc1ccc(-c2c(-c3ccc4c(c3)CN(C3CCC(=O)NC3=O)C4=O)cnn2C)cn1 (stereo not drawn) [Example 367]
F (F = >75-100% remaining) | ≥ 25 | ≥ 25 | F (F = >75-100% remaining) | Cc1cncc(-c2c(-c3ccc4c(c3)CN(C3CCC(=O)NC3=O)C4=O)cnn2C)c1 (stereo not drawn) [Example 369]
D (D = >10- 25% remaining) | < 25 | ≥ 25 | F (F = >75-100% remaining) | Cn1cc(-c2c(-c3ccc4c(c3)CN(C3CCC(=O)NC3=O)C4=O)cnn2C)cc1C#N (stereo not drawn) [Example 375]
D (D = >10- 25% remaining) | < 25 | ≥ 25 | F (F = >75-100% remaining) | CN1N=CC(c2ccc3c(c2)CN(C2CCC(=O)NC2=O)C3=O)C1c1cnn(C2CC2)c1 (stereo not drawn) [Example 376]
E (E = >25-75% remaining) | < 25 | ≥ 25 | F (F = >75-100% remaining) | COc1ncccc1-c1c(-c2ccc3c(c2)CN(C2CCC(=O)NC2=O)C3=O)cnn1C (stereo not drawn) [Example 377]
